Article PMC3098207 (Malaria Journal, 2011)
Where two headings read alike, the source gives them in different places.

What was measured:
[1] = Population pharmacokinetics of oral AS and its metabolite DHA in pregnant and non-pregnant women (NONMEM parent-metabolite model); type: in vivo, human
Excerpt: Women presenting for prenatal care at the clinic were screened for study eligibility if they were between 18 and 40 years of age and at less than 22 weeks gestation, determined by last menstrual period. Women confirmed by ultrasound to be between 8 to 21 weeks gestation (inclusive) were invited to be participants in the study. Women were asked to return between 22 to 26 weeks gestation for screening and enrollment; women not enrolled at 22 to 26 weeks were screened again at 32 to 36 weeks gestation. A cohort of non-pregnant female controls was also enrolled. At the time of enrollment, both the pregnant and non-pregnant subjects had asymptomatic Plasmodium falciparum parasitaemia, with a parasite density between 200 and 300,000 parasite/μL, were HIV seronegative, and were without anaemia (haematocrit >30%) or other major medical problems (e.g. chronic hypertension, diabetes, etc.). Plasmodium falciparum parasite density was assessed though Giemsa staining of thick and thin blood films; slide-positive infections were later PCR-confirmed using DNA extracted from dried blood spots [8].
Blood sampling schedule and sample handling were uniformly applied for pregnant, postpartum, and control subjects. Blood samples were collected in pre-chilled tubes containing potassium oxalate/sodium fluoride. Following collection, tubes were placed on wet ice; within 5 minutes of collection, samples were centrifuged. Immediately following centrifugation, plasma was removed from the cells and transferred into cryovials. The plasma samples were transferred to liquid nitrogen until they could be frozen at or below -80°C in a laboratory freezer; samples were later shipped on dry ice to the Clinical Pharmacokinetics Laboratory at the College of Pharmacy, University of Iowa, where they were stored at -80°C until drug analysis was performed.
The reconstituted extracts were chromatographed isocratically. Mass spectroscopy in positive ion mode was used to detect and quantify the compounds.
Nonlinear mixed effects model building was conducted using NONMEM software version 7 (ICON Development Solutions, Ellicott City, MD) [10] implemented on a Windows XP operating system (Microsoft Corporation, Seattle, WA) with a G95 Fortran compiler (Free Software Foundation, Boston, MA). Monte Carlo importance sampling expectation maximization with interaction (IMP INTER) estimation method was used to fit models. Pdx-Pop 4.0 (ICON Development Solutions, Ellicott City, MD) and Xpose version 4.1.0 (Uppsala University, Uppsala, Sweden) [11] were used in processing NONMEM 7 output. Plots were generated with TIBCO Spotfire S+ version 8.1 (TIBCO Software Inc., Palo Alto, CA) and R version 2.10.0 (Free Software Foundation, Boston, MA).
Simultaneous models were implemented using ADVAN 5.

[2] = weak acid; cited from earlier work
[3] = free acid form of AS; cited from earlier work
[4] = design: method as in McGready et al 5; details: pregnant women (2nd or 3rd trimester), adjusted for median weight 50 kg, ref McGready et al 5, cited from earlier work
[5] = design: method as in Teja-Isavadharm et al 30; details: oral AS, non-pregnant patients with falciparum malaria, non-compartmental, range 0.70 - 2.70 L/kg; ref Teja-Isavadharm et al 30; cited from earlier work
[6] = design: method as in Newton et al 31; details: oral AS, acute falciparum malaria patients, 95% CI 1.02 - 1.64; ref Newton et al 31; cited from earlier work
[7] = interindividual variability, final model

C[C@H]1[C@H](OC(=O)CCC(=O)O)O[C@@H]2O[C@@]3(C)CC[C@H]4[C@H](C)CC[C@@H]1[C@@]24OO3 [AS, artesunate]
IIV - V2/F, variance (%CV), estimate ([1]; female, human, in vivo): 0.604 (77.7)
IIV - V2/F, variance, bootstrap mean (95% CI) ([1]; female, human, in vivo): 0.568 (0.253-0.942)
half-life ([1]; female, human, in vivo, po, 200 mg, AS elimination half-life): ~9.1 min
CL/F apparent clearance of AS, bootstrap mean (95% CI) ([1]; human, in vivo, po, 200 mg): 904 (788-1045) L/h
CL/F: apparent clearance of AS, estimate ([1]; human, in vivo, po, 200 mg): 895 L/h
pKa [2]: 4.6
Solubility of the free acid form [3]: 168.2 µg/mL

C[C@H]1[C@@H](O)O[C@@H]2O[C@@]3(C)CC[C@H]4[C@H](C)CC[C@@H]1[C@@]24OO3 [DHA, dihydroartemisinin]
RV - variance (residual variability), bootstrap mean (95% CI) ([1]; additive model for log-transformed plasma concentrations, 1000 bootstrap runs): 0.174 (0.129-0.226)
RV - variance (residual variability), estimate ([1]; additive model for log-transformed plasma concentrations, final model): 0.174
CLM/F apparent clearance of DHA, bootstrap mean (95% CI) ([1]; after 200 mg oral AS, 1000 bootstrap runs, value without the pregnancy covariate (non-pregnant)): 64.2 (55.1-75.2) L/h
DHA volume of distribution adjusted for the median weight of the pregnancy and control groups ([1]; after 200 mg oral AS, current analysis): 1.58 L/kg
CLM/F: apparent clearance of DHA, estimate ([1]; after 200 mg oral AS, final model NONMEM estimate, value without the pregnancy covariate (non-pregnant)): 64.0 L/h
Vd/F ([1]; female, human, plasma, po, 200 mg, after 200 mg oral AS, 1000 bootstrap runs, read-out: V3/F apparent volume of distribution of DHA, bootstrap mean (95% CI)): 92.1 L
Vd/F ([1]; female, human, plasma, po, 200 mg, after 200 mg oral AS, final model NONMEM estimate, read-out: V3/F: apparent volume of distribution of DHA, estimate): 91.4 L
half-life ([1]; female, human, plasma, po, 200 mg, after 200 mg oral AS, non-pregnant, read-out: DHA elimination half-life, non-pregnant subjects): 59 min
half-life ([1]; female, human, plasma, po, 200 mg, after 200 mg oral AS, pregnant, read-out: DHA elimination half-life, pregnant subjects): 45 min
IIV - CLM/F, variance, bootstrap mean (95% CI) ([1]; interindividual variability, 1000 bootstrap runs): 0.0711 (0.031-0.113)
IIV - CLM/F, variance (%CV), estimate [1, 7]: 0.0802 (28.3)
IIV - V3/F, variance (%CV), estimate [1, 7]: 0.0790 (28.1)
PREG on CLM/F, bootstrap mean (95% CI) ([1]; pregnant vs non-pregnant women, 1000 bootstrap runs): 0.427 (0.197-0.723)
PREG on CLM/F: factor of proportional increase in CLM/F associated with pregnancy, estimate ([1]; pregnant vs non-pregnant women, final model NONMEM estimate): 0.423
Pregnancy-associated trend towards increased DHA volume of distribution ([1]; pregnant vs non-pregnant, significant (p < 0.05) only in first forward addition step, not retained in final model): approximately 37%
DHA clearance in pregnant patients, estimate of the present analysis ([1]; pregnant, after 200 mg oral AS): 91 L/h
Oral DHA clearance ([4]; oral AS 4 mg/kg/day for three days with atovaquone and proguanil, 95% CI 60 - 117 L/h): 88.5 L/h
DHA volume of distribution ([4]; oral AS 4 mg/kg/day, 95% CI 57 - 406 L): 231.5 L
DHA volume of distribution [5]: 1.33 L/kg
DHA volume of distribution [6]: 1.33 L/kg
